Measured values: PMC7481357, “N-terminal Myristoylation Enhanced the Antimicrobial Activity of Antimicrobial Peptide PMAP-36PW” (Frontiers in Cellular and Infection Microbiology, 2020)
Entries after “also recorded” stand apart in the source; their conditions may differ. Residues, ends and D or L forms follow the SMILES beside them. *: point of attachment. Myristoyl = CCCCCCCCCCCCCC(=O)*

Columns and labels:
S. aureus ATCC 25923 = experiment: Inhibition zone assay (disk diffusion); type: cell-based, Staphylococcus aureus; design: key: +, means the peptide has antibacterial activity; conditions: disk 10 μg peptide, 18 h at 37°C, * P < 0.05, ** P < 0.01 vs PMAP-36PW
Description: (§1) The inhibition zone assay was performed through the disk diffusion to evaluate the antimicrobial activity of Myr-36PW in vitro (Dunne et al., [2017]). The four above-mentioned bacterial strains were used as experimental strains, with L. monocytogenes CICC 21634 cultured in BHI medium, and P. aeruginosa GIM 1.551 cultured in TSB medium. The bacterial cells were cultured for 12 h at 37°C in the appropriate medium, and the bacterial cell suspension was spread on LB agar. The disks containing 10 μg of peptides (1 μg/μL) were attached to the solid medium and incubated at 37°C for 18 h. Finally the diameter of the inhibition zone was measured.

P. aeruginosa GIM 1.551 [1] = experiment: Inhibition zone assay (disk diffusion); type: cell-based, Pseudomonas aeruginosa; design: key: +, means the peptide has antibacterial activity; conditions: disk 10 μg peptide, 18 h at 37°C, * P < 0.05, ** P < 0.01 vs PMAP-36PW
Description: as §1

P. aeruginosa GIM 1.551 [2] = type: cell-based, Pseudomonas aeruginosa; conditions: GIM 1.551, 1 h
Description: The effects of abiotic factors on the antibacterial activity of Myr-36PW were investigated by MIC assay (Xi et al., [2013]; Zhong et al., [2019]). S. aureus ATCC 25923 and P. aeruginosa GIM 1.551 overnight cultures were diluted to 1 × 10^6 CFU/mL, and the MICs of peptides in MHB with different concentration of physiological salts (150 mM NaCL, 2 mM CaCL2) were determined. And after the peptides incubated in 10% mice serum for 1 h at 37°C, MICs of peptides against S. aureus ATCC 25923 and P. aeruginosa GIM 1.551 were determined. The MICs in MHB in the absence of physiological salts and serum were used as the control group.
Salt and serum stability in vitro were indicated by MIC assay. The concentrations of NaCl and CaCl2 were physiological concentration. 10% mice serum was inactivated by heat treatment for 15 min at 60 ℃。The control group was measured in the absence of physiological salts or serum in MHB.

P. aeruginosa GIM 1.551 [3] = experiment: Subcutaneous abscess model; type: in vivo, BALB/c mice; conditions: injected 20 μL, 1 μg/μL, once a day for 3 days
Description: A subcutaneous abscess model in vivo was established as previously reported (Zhao et al., [2019]). The mouse dorsal region with 3.0 cm diameter was treated with hair pusher. A total of 120 mice were randomly divided into two experimental models, one was challenged with S. aureus ATCC 25923 (2.5 × 10^8 CFU/mL, 60 μL), and the other was challenged with P. aeruginosa GIM 1.551 (3.0 × 10^8 CFU/mL, 60 μL). In the S. aureus ATCC 25923 model, 60 mice were divided into six groups of 10 members. The mice with no infection and treatment was used as a blank control, those directly injected with PBS (20 μL) as the negative control group, those injected with benzylpenicillin potassium (20 μL, 1 μg/μL) as the positive control group, and the remaining three groups as the treatment groups injected with Myr-36PW (20 μL, 1 μg/μL), PMAP-36PW (20 μL, 1 μg/μL), and PMAP-36 (20 μL, 1 μg/μL). The procedure in P. aeruginosa GIM 1.551 model is the same as that in S. aureus ATCC 25923 model, except for the use of ampicillin sodium as a positive control. Treatment once a day for 3 days was initiated when the mice developed prominent pustules on their backs. A day after the treatment, the size of the abscess was observed, and its tissues were excised, homogenized, and serially diluted. Bacteria CFU counts were calculated.
Figure 10 Treatment efficacy of subcutaneous abscess by Myr-36PW in vivo. Mice were injected with S. aureus ATCC 25923 or P. aeruginosa GIM 1.551 to develop a subcutaneous abscess before treatment. (A) Changes in the abscess area of mice after 3 days treatment. (B,C) Quantitative analysis of bacterial CFU in abscess area that received 3 days treatment under various experimental conditions. The number of CFU in each treatment group was normalized by using the CFU of the experimental group divided by the CFU of the PBS group (100%). BP is benzylpenicillin potassium, AS is ampicillin sodium. Data represent the mean ± SD of five individual experiments. *P < 0.05 and **P < 0.01, compared with PBS. ^#P < 0.05 and ^##P < 0.01, compared with PMAP-36PW.

P. aeruginosa GIM 1.551 [4] = experiment: Wound infection model; type: in vivo, BALB/c mice; conditions: 20 μL, 1 μg/μL, once a day for 7 days
Description: Sixty mice with ten mice in each group were used in the experiment. Infection and treatment were performed as previously described (Hong et al., [2017]). The mouse dorsal region with a diameter of 3.0 cm was treated with hair pusher, and a full-thickness 2.0 cm diameter wound was created by excising the skin and infected by direct seeding with P. aeruginosa GIM 1.551 (1 × 10^8 CFU/mL, 50 μL). The wound was then covered with sterile gauze to prevent cross contamination. Treatment was initiated at 24 h after bacterial inoculation. The mice with no infection and treatment was used as a blank control, those provided with PBS (20 μL) as the negative control group, those administered with ampicillin sodium (20 μL, 1 μg/μL) as the positive control group, and the remaining were those treated with the three peptides (20 μL, 1 μg/μL) once a day for 7 days as the treatment groups. The mice were sacrificed after the 7 day treatment. Changes in the wound were observed, and the infected sections of skin were aseptically contained, homogenized, and serially diluted. Bacterial CFU counts were obtained.
Figure 11 Treatment value of wound by Myr-36PW in vivo. A 2 cm wound was cut with a knife and directly injected with P. aeruginosa GIM 1.551. (A) Wound changes of mice after 7 days treatment. (B) Bacterial CFU in the wound area treated for 7 days under different experimental conditions. AS is ampicillin sodium. Data represent the mean Log (CFU) ± SD of five individual experiments. *P < 0.05 and **P < 0.01, compared with PBS. ^#P < 0.05, compared with PMAP-36PW.

[5] = Self-assembly of the peptide; type: physicochemical; conditions: stated in discussion, method not given

CCCCCCCCCCCCCC(=O)NCC(=O)NCC(=O)N[C@@H](CCCNC(=N)N)C(=O)N[C@@H](Cc1ccccc1)C(=O)N[C@@H](CCCNC(=N)N)C(=O)N[C@@H](CCCNC(=N)N)C(=O)N[C@@H](CC(C)C)C(=O)N[C@@H](CCCNC(=N)N)C(=O)N[C@@H](CCCCN)C(=O)N[C@@H](CCCCN)C(=O)N[C@H](C(=O)N[C@@H](CCCNC(=N)N)C(=O)N[C@@H](CCCCN)C(=O)N[C@@H](CCCNC(=N)N)C(=O)N[C@@H](CC(C)C)C(=O)N[C@@H](CCCCN)C(=O)N[C@@H](CCCCN)C(=O)N[C@H](C(=O)NCC(=O)N[C@@H](CCCCN)C(=O)N[C@H](C(=O)N[C@@H](CC(C)C)C(=O)N[C@@H](CCCCN)C(=O)N[C@@H](Cc1c[nH]c2ccccc12)C(=O)N[C@H](C(=O)N[C@@H](Cc1c[nH]c2ccccc12)C(=O)N[C@@H](Cc1c[nH]c2ccccc12)C(=O)N[C@H](C(=O)N[C@H](C(=O)NCC(=O)N[C@@H](CO)C(=O)N[C@H](C(=O)N1CCC[C@H]1C(=O)N[C@@H](CC(C)C)C(=O)NCC(=O)N[C@@H](CS)C(=O)NCC(=O)O)[C@@H](C)CC)C(C)C)[C@@H](C)CC)[C@@H](C)CC)C(C)C)[C@@H](C)CC)[C@@H](C)O [Myr-36PW] (Myristoyl-GGRFRRLRKKTRKRLKKIGKVLKWIWWIVGSIPLGCG-OH; C-terminus assumed)
In vitro antibacterial activity (disk diffusion) (S. aureus ATCC 25923): +** | In vitro antibacterial activity (disk diffusion) (P. aeruginosa GIM 1.551 [1]): +** | MICs, CaCl2 (P. aeruginosa GIM 1.551 [2]): 0.5 µg/mL | MICs, Control (P. aeruginosa GIM 1.551 [2]): 0.25 µg/mL | MICs, NaCl (P. aeruginosa GIM 1.551 [2]): 0.25 µg/mL | MICs, Serum (P. aeruginosa GIM 1.551 [2]): 0.5 µg/mL | Abscess area (P. aeruginosa GIM 1.551 [3]): significantly reduced the abscess area and effectively suppressed its growth | Bacterial CFU in abscess area (P. aeruginosa GIM 1.551 [3]; vs PMAP-36PW: Myr-36PW P < 0.05, ampicillin sodium P < 0.01, n = 5): significant difference compared with that of PBS group (P < 0.01); also recorded: lower than that of PMAP-36PW group | Wound size (P. aeruginosa GIM 1.551 [4]): significantly reduced | Bacterial CFU in the wound area (P. aeruginosa GIM 1.551 [4]; vs PBS group: PMAP-36PW P < 0.05, Myr-36PW and ampicillin sodium P < 0.01, n = 5): significantly reduced | Self-assembly [5]: not self-assembly
